{"source": "patent US5776946A", "about": "“Peripheral benzodiazepine receptor ligands as antiinflammatory agents” (priority 1995, dated 1998)", "key": {"[1]": {"target": "T1, peripheral benzodiazepine receptors in brain (Homo sapiens, UniProt P30536)", "T1 construct": "host or cells: brain (Doble et al., 1987)", "T1 sequence (P30536 whole entry)": "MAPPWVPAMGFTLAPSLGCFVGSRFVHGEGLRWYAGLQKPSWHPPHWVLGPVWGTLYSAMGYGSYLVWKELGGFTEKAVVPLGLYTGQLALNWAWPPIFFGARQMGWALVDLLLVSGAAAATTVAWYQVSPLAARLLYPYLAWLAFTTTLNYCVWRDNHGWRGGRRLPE", "details": "read-out: ability to displace bound PK 11195 from peripheral benzodiazepine receptors (Ki); cited from earlier work"}, "[2]": {"system": "cultured rat peritoneal macrophages", "assay": "Respiratory burst in cultured rat peritoneal macrophages activated by opsonized zymosan", "assay_type": "cell-based", "details": "Peritoneal macrophage; for activity at 1000 µM: 10^-3 M", "source_text": "Its main function is to protect the body from hostile invaders by generating superoxide radicals, but inappropriate activation can damage host tissue. Oxidative stress is believed to be one of the more harmful concomitants of inflammation. The respiratory burst system can be activated in cultured peritoneal macrophages in multiple ways, including exposure to zymosan particles opsonized by complement proteins (Klegeris and McGeer, 1994).\nFor methods see Klegeris and McGeer, 1994."}, "MRL-lpr mice": {"system": "MRL-lpr mice", "assay": "CFA-induced disease in MRL-lpr mice, joint histopathology", "assay_type": "in vivo, mouse", "details": "for Severity of Disease Sign Total / Severity of Disease Sign (1) subsynovial inflammation / Severity of Disease Sign (2) synovial hyperplasia / Severity of Disease Sign (3) pannus formation / Severity of Disease Sign (4) bone destruction: day 30, mean ± S.D.; for Severity of Disease Sign (1) subsynovial inflammation / Severity of Disease Sign (2) synovial hyperplasia / Severity of Disease Sign (3) pannus formation / Severity of Disease Sign (4) bone destruction: scale 0-4", "source_text": "MRL-lpr mice are a widely studied strain which spontaneously develop a particularly severe autoimmune disorder. Pathologies that are found in a variety of human idiopathic inflammatory and autoimmune diseases are reproduced in these animals. They are therefore considered to be an outstanding model for such individual human diseases, although the pathology represents a combination of several of them. They are regarded as the best animal model for rheumatoid arthritis (Koopman and Gay, 1988) , systemic lupus erythematous (Bartlett et al., 1988)., and Sjogren's syndrome (Hayashi et al., 1994). […] They develop behavioral and neurological deficits (Sakic et al., 1993), as well as evidence of CNS inflammation (Vogelweid et al., 1991) which is seen in isolation in such diseases as Alzheimer type dementia and multiple sclerosis, but is also part of the syndrome in systemic lupus erythematosus and Sjogren's syndrome. The model is considered to be a particularly demanding one for screening antiinflammatory agents because of the severity and comprehensiveness of the disease pathology. […] The lesions include synovial inflammation, synovial cell proliferation, pannus formation, and articular cartilage erosion and bone destruction. Only powerful antiinflammatory agents will inhibit the devastating changes that accompany this genetic disorder. Mice of the MRL-lpr strain spontaneously develop a mild form of the disease at several months of age. The onset can be accelerated by injection of complete Freund's adjuvant (CFA) supplemented to 10 mg/ml with heat-inactivated M. tuberculosis, at 13-14 weeks of age, with 67-82% of animals becoming affected within 1 month (Ratkay et al., 1994; Ratkay et al., 1993).\nDaily injections were continued until day 14. The animals were sacrificed at day 30 and joint histopathology assessed. […] The results were compared with those in littermates receiving CFA only (N=7). Following sacrifice, animals were evaluated for subsynovial inflammation, synovial hyperplasia, cartilage destruction and pannus formation, and bone destruction.\n^A The histopathological changes were assessed on a scale of 0 (no\nchange) to 4 (severe change) for the following indices: (1) subsynovial\ninflammation; (2) synovial hyperplasia; (3) pannus formation; and (4) bon\ndestruction. For methods see Ratkay et al., 1994."}, "[3]": {"target": "T2, peripheral benzodiazepine receptors, human Alzheimer and control cortical tissue (Homo sapiens, UniProt P30536)", "T2 construct": "from tissue; host or cells: human cortical brain tissue, Alzheimer and neurologically normal control", "T2 sequence (P30536 whole entry)": "as above", "assay": "Specific high affinity binding of PK 11195 to Alzheimer and control cortical tissue", "details": "PK 11195 at 3 nM", "source_text": "The standard method of Schoemaker et al., 1983 was employed."}, "[4]": {"target": "T3, peripheral benzodiazepine receptors, mouse peritoneal macrophages (Mus musculus, UniProt P50637)", "T3 construct": "host or cells: mouse peritoneal macrophages (Zavala and Lenfant, 1987b)", "T3 sequence (P50637 whole entry)": "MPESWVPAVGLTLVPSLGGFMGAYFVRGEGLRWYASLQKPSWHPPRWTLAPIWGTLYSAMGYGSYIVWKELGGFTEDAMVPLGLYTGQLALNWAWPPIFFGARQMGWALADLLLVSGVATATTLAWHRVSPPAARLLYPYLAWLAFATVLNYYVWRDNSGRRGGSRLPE", "details": "read-out: affinity; cited from earlier work"}, "[5]": {"target": "T2, peripheral benzodiazepine receptors, human Alzheimer and control cortical tissue", "details": "McGeer et al., 1988; cited from earlier work"}, "[6]": {"details": "10^-4 M, after opsonized zymosan, read-out: Respiratory burst, Percent of Control (± S.E.), substance given After OZ"}, "[7]": {"details": "10^-4 M, before opsonized zymosan, read-out: Respiratory burst, Percent of Control (± S.E.), substance given Before OZ"}, "[8]": {"details": "10^-5 M, before opsonized zymosan, read-out: Respiratory burst, Percent of Control (± S.E.), substance given Before OZ"}, "[9]": {"details": "after opsonized zymosan, read-out: Respiratory burst, Percent of Control (± S.E.), substance given After OZ"}, "[10]": {"details": "before opsonized zymosan, read-out: Respiratory burst, Percent of Control (± S.E.), substance given Before OZ"}, "[11]": {"details": "read-out: Respiratory burst, Percent of Control (± S.E.), substance given After OZ"}, "[12]": {"details": "read-out: Respiratory burst, Percent of Control (± S.E.), substance given Before OZ"}}, "note": "Values joined by “and” are separate entries in the source; they are usually repeats but may differ in a detail not shown here. Equal entries are not always repeated. Where two headings read alike, the source gives them in different places.", "data": [{"compound": "CCN(CC)C(=O)C(C)Cc1cc(-c2ccccc2)nc2ccccc12", "note": "(single isomer, unassigned) [PK-14067, 1-N,N-diethyl-a-methyl-2-phenylquinoline-4-propranamide]", "values": [{"measurement": "Ki", "setting": "[1]", "value": 44, "unit": "nM"}]}, {"compound": "Nc1ccc(S(=O)(=O)c2ccc(N)cc2)cc1", "note": "[Dapsone, dapsone]", "values": [{"measurement": "activity at 100 µM", "setting": "[2]; [6]", "value": "90.3 ± 6.2", "unit": "%"}, {"measurement": "activity at 100 µM", "setting": "[2]; [7]", "value": "73.6 ± 4.6", "unit": "%"}, {"measurement": "activity at 10 µM", "setting": "[2]; 10^-5 M, after opsonized zymosan, read-out: Respiratory burst, Percent of Control (± S.E.), substance given After OZ", "value": "96.4 ± 1.6", "unit": "%"}, {"measurement": "activity at 10 µM", "setting": "[2]; [8]", "value": "94.7 ± 1.3", "unit": "%"}]}, {"compound": "COc1ccc2c(c1)c(CC(=O)O)c(C)n2C(=O)c1ccc(Cl)cc1", "note": "[Indomethacin, indomethacin]", "values": [{"measurement": "activity at 1000 µM", "setting": "[2]; [9]", "value": "64.8 ± 9.4", "unit": "%"}, {"measurement": "activity at 1000 µM", "setting": "[2]; [10]", "value": "36 ± 12.5", "unit": "%"}, {"measurement": "activity at 100 µM", "setting": "[2]; [6]", "value": "101 ± 2.1", "unit": "%"}, {"measurement": "activity at 100 µM", "setting": "[2]; [7]", "value": "86.3 ± 10.9", "unit": "%"}, {"measurement": "activity at 10 µM", "setting": "[2]; [8]", "value": "101 ± 3.5", "unit": "%"}]}, {"compound": "CCC(C)N(C)C(=O)c1cc2ccccc2c(-c2ccccc2Cl)n1", "note": "(stereo not drawn) [PK 11195, 1-(2-chlorophenyl)-N-methyl-N-(1-methylpropyl)-3-isoquinolinecarboxamide]", "values": [{"measurement": "Severity of Disease Sign Total", "setting": "MRL-lpr mice; 0.1 mg/kg s.c. daily to day 14", "value": "1.40 ± 0.48"}, {"measurement": "Severity of Disease Sign (1) subsynovial inflammation", "setting": "MRL-lpr mice; 0.1 mg/kg s.c. daily to day 14", "value": "0.70 ± 0.26"}, {"measurement": "Severity of Disease Sign (2) synovial hyperplasia", "setting": "MRL-lpr mice; 0.1 mg/kg s.c. daily to day 14", "value": "0.70 ± 0.26"}, {"measurement": "Severity of Disease Sign (3) pannus formation", "setting": "MRL-lpr mice; 0.1 mg/kg s.c. daily to day 14", "value": "0.00 ± 0.00"}, {"measurement": "Severity of Disease Sign (4) bone destruction", "setting": "MRL-lpr mice; 0.1 mg/kg s.c. daily to day 14", "value": "0.00 ± 0.00"}, {"measurement": "Severity of Disease Sign Total", "setting": "MRL-lpr mice; 0.5 mg/kg s.c. daily to day 14", "value": "1.25 ± 0.53"}, {"measurement": "Severity of Disease Sign (1) subsynovial inflammation", "setting": "MRL-lpr mice; 0.5 mg/kg s.c. daily to day 14", "value": "0.62 ± 0.26"}, {"measurement": "Severity of Disease Sign (2) synovial hyperplasia", "setting": "MRL-lpr mice; 0.5 mg/kg s.c. daily to day 14", "value": "0.50 ± 0.27"}, {"measurement": "Severity of Disease Sign (3) pannus formation", "setting": "MRL-lpr mice; 0.5 mg/kg s.c. daily to day 14", "value": "0.00 ± 0.00"}, {"measurement": "Severity of Disease Sign (4) bone destruction", "setting": "MRL-lpr mice; 0.5 mg/kg s.c. daily to day 14", "value": "0.12 ± 0.12"}, {"measurement": "Severity of Disease Sign Total", "setting": "MRL-lpr mice; 1 mg/kg s.c. daily to day 14", "value": "1.14 ± 0.14"}, {"measurement": "Severity of Disease Sign (1) subsynovial inflammation", "setting": "MRL-lpr mice; 1 mg/kg s.c. daily to day 14", "value": "0.43 ± 0.20"}, {"measurement": "Severity of Disease Sign (2) synovial hyperplasia", "setting": "MRL-lpr mice; 1 mg/kg s.c. daily to day 14", "value": "0.71 ± 0.18"}, {"measurement": "Severity of Disease Sign (3) pannus formation", "setting": "MRL-lpr mice; 1 mg/kg s.c. daily to day 14", "value": "0.00 ± 0.00"}, {"measurement": "Severity of Disease Sign (4) bone destruction", "setting": "MRL-lpr mice; 1 mg/kg s.c. daily to day 14", "value": "0.00 ± 0.00"}, {"measurement": "reduction of the total histopathological score observed in control mice", "setting": "MRL-lpr mice; even at the lowest dose of 0.1 mg/kg", "value": "more than 70%"}, {"measurement": "efficacy compared with results of Ratkay et al., 1994", "setting": "MRL-lpr mice; lowest dose 0.1 mg/kg", "value": "more effective than ten times that dose of indomethacin, forty times that dose of cyclosporin"}, {"measurement": "activity at 1 µM", "setting": "[2]; [11]", "value": "97.9 ± 0.2", "unit": "%"}, {"measurement": "activity at 10 µM", "setting": "[2]; [11]", "value": "83.5 ± 8.7", "unit": "%"}, {"measurement": "activity at 100 µM", "setting": "[2]; [11]", "value": "47.1 ± 13.6", "unit": "%"}, {"measurement": "activity at 1 µM", "setting": "[2]; [12]", "value": "99 ± 5.6", "unit": "%"}, {"measurement": "activity at 10 µM", "setting": "[2]; [12]", "value": "87.9 ± 5.5", "unit": "%"}, {"measurement": "activity at 100 µM", "setting": "[2]; [12]", "value": "48.9 ± 10.8", "unit": "%"}, {"measurement": "inhibition at 100 µM", "setting": "[2]; read-out: inhibition of respiratory burst", "value": "> 50", "unit": "%"}, {"measurement": "Specific High Affinity Binding, Alzheimer cortical tissue, Means ± S.E.", "setting": "[3]; Alzheimer", "value": "449 ± 25", "unit": "fentamoles/mg protein"}, {"measurement": "Specific High Affinity Binding, Alzheimer cortical tissue, individual cases", "setting": "[3]; Alzheimer", "value": "480 fentamoles/mg protein and 585 fentamoles/mg protein and 400 fentamoles/mg protein and 450 fentamoles/mg protein and 395 fentamoles/mg protein and 408 fentamoles/mg protein and 422 fentamoles/mg protein"}, {"measurement": "Specific High Affinity Binding, Control cortical tissue, Means ± S.E.", "setting": "[3]; Control", "value": "165 ± 25", "unit": "fentamoles/mg protein"}, {"measurement": "Specific High Affinity Binding, Control cortical tissue, individual cases", "setting": "[3]; Control", "value": "201 fentamoles/mg protein and 94 fentamoles/mg protein and 265 fentamoles/mg protein and 118 fentamoles/mg protein and 141 fentamoles/mg protein and 111 fentamoles/mg protein and 222 fentamoles/mg protein"}, {"measurement": "Kd", "setting": "[4]", "value": 5.6, "unit": "nM"}]}, {"compound": "C[C@]12C=CC(=O)C=C1CC[C@@H]1[C@@H]2C(=O)C[C@@]2(C)[C@H]1CC[C@]2(O)C(=O)CO", "note": "[Prednisone, prednisone]", "values": [{"measurement": "activity at 1000 µM", "setting": "[2]; [9]", "value": "67 ± 11.6", "unit": "%"}, {"measurement": "activity at 1000 µM", "setting": "[2]; [10]", "value": "62.5 ± 8.1", "unit": "%"}, {"measurement": "activity at 100 µM", "setting": "[2]; [6]", "value": "102 ± 4.9", "unit": "%"}, {"measurement": "activity at 100 µM", "setting": "[2]; [7]", "value": "88.8 ± 7.2", "unit": "%"}]}, {"compound": "CN1C(=O)CN=C(c2ccc(Cl)cc2)c2cc(Cl)ccc21", "note": "[Ro 5-4864, 4'-chlorodiazepam]", "values": [{"measurement": "activity at 1 µM", "setting": "[2]; [12]", "value": "94.6 ± 12.2", "unit": "%"}, {"measurement": "activity at 10 µM", "setting": "[2]; [12]", "value": "85.4 ± 2.5", "unit": "%"}, {"measurement": "activity at 100 µM", "setting": "[2]; [12]", "value": "74.7 ± 1.9", "unit": "%"}, {"measurement": "Ki", "setting": "[1]", "value": 178, "unit": "nM"}, {"measurement": "high affinity binding to Alzheimer versus neurologically normal brain tissue", "setting": "[5]", "value": "greater high affinity binding to Alzheimer brain tissue than to neurologically normal brain tissue"}]}]}
